Assay results from patent publication US20090099177A1, “PYRIDYL COMPOUNDS” (priority 2006, published 2009).
Counter-ions that a name gives are not always drawn.

Key:
human EP1 receptor = biological target: T1, human EP1 receptor (Homo sapiens, UniProt P34995); experiment: human EP1 calcium mobilisation assay; assay type: cell-based; conditions: for Ki: human EP1, CHO-K1 cells, antagonism of PGE2, averages of a number of experiments, read-out: functional pKi value (converted)
T1 construct: expressed in transfected cells; host or cells: CHO-K1
T1 sequence (P34995 1-402): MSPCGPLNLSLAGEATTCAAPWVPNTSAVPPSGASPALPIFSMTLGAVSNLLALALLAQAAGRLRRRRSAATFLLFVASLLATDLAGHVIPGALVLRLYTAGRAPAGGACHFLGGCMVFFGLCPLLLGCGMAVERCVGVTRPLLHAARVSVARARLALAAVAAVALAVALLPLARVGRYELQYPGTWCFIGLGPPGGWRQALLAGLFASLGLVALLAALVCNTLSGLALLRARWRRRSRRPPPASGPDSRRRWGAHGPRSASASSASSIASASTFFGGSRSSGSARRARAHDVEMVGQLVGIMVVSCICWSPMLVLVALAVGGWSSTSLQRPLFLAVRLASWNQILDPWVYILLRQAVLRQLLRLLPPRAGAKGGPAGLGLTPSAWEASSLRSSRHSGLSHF
Experimental: (§1) Briefly, the antagonist properties of compounds are assessed by their ability to inhibit the mobilisation of intracellular calcium ([Ca^2+]i) in response to activation of EP1 or EP3 receptors by the natural agonist hormone prostaglandin E2 (PGE2). Increasing concentrations of antagonist reduce the amount of calcium that a given concentration of PGE2 can mobilise. The net effect is to displace the PGE2 concentration-effect curve to higher concentrations of PGE2. The amount of calcium produced is assessed using a calcium-sensitive fluorescent dye such as Fluo-4, AM and a suitable instrument such as a Fluorimetric Imaging Plate Reader (FLIPR). Increasing amounts of [Ca^2+]i produced by receptor activation increase the amount of fluorescence produced by the dye and give rise to an increasing signal. The signal may be detected using the FLIPR instrument and the data generated may be analysed with suitable curve-fitting software.
(§2) The human EP1 or EP3 calcium mobilisation assay (hereafter referred to as ‘the calcium assay’) utilises Chinese hamster ovary-K1 (CHO-K1) cells into which a stable (pCIN; BioTechniques 20 (1996): 102-110) vector containing either EP1 or EP3 cDNA has previously been transfected. Cells are cultured in suitable flasks containing culture medium such as DMEM:F-12 supplemented with 10% v/v foetal calf serum, 2 mM L-glutamine, 0.25 mg/ml geneticin, 100 μM flurbiprofen and 10 μg/ml puromycin.
(§3) For assay, cells are harvested using a proprietary reagent that dislodges cells such as Versene. Cells are re-suspended in a suitable quantity of fresh culture media for introduction into a 384-well plate. Following incubation for 24 hours at 37° C. the culture media is replaced with a medium containing Fluo-4 and the detergent pluronic acid, and a further incubation takes place. Concentrations of compounds are then added to the plate in order to construct concentration-effect curves. This may be performed on the FLIPR in order to assess the agonist properties of the compounds. Concentrations of PGE2 are then added to the plate in order to assess the antagonist properties of the compounds.
(§4) The data so generated may be analysed by means of a computerised curve-fitting routine. The concentration of compound that elicits a half-maximal inhibition of the calcium mobilisation induced by PGE2 (pIC50) may then be estimated.

human EP3 receptor = biological target: T2, human EP3 receptor (Homo sapiens, UniProt P43115); experiment: human EP3 calcium mobilisation assay; assay type: cell-based; conditions: human EP3, CHO-K1 cells, antagonism of PGE2; averages of a number of experiments; read-out: functional pKi value (converted)
T2 construct: expressed in transfected cells; host or cells: CHO-K1
T2 sequence (P43115 1-390): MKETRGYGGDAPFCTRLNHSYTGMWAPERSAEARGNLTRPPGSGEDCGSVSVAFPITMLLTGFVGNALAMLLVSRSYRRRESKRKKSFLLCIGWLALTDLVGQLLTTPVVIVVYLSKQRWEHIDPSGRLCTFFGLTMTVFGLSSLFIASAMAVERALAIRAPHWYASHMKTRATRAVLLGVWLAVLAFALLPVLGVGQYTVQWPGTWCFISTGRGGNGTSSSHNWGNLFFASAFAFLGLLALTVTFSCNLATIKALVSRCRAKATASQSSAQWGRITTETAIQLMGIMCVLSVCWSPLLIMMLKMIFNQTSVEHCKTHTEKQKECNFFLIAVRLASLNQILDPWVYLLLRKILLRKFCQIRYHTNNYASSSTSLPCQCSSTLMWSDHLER
Experimental: as §1, §2, §3, §4

[1] = biological target: T3, human prostanoid EP1 receptor (Homo sapiens, UniProt P34995); experiment: Binding assay for the human prostanoid EP1 receptor (competition with [3H]-PGE2); conditions: [3H]-PGE2 competition, human EP1, CHO-K1 membranes; averages of a number of experiments; read-out: pIC50 value (converted)
T3 construct: expressed in transfected cells; host or cells: CHO-K1 (membrane fraction)
T3 sequence (P34995 1-402): T1 sequence (P34995 1-402)
Experimental: Competition assay using [^3H]-PGE2.
Compound potencies are determined using a radioligand binding assay. In this assay compound potencies are determined from their ability to compete with tritiated prostaglandin E2 ([^3H]-PGE2) for binding to the human EP1 receptor.
This assay utilises Chinese hamster ovary-K1 (CHO-K1) cells into which a stable vector containing the EP1 cDNA has previously been transfected. Cells are cultured in suitable flasks containing culture medium such as DMEM:F-12 supplemented with 10% v/v foetal calf serum, 2 mM L-glutamine, 0.25 mg/ml geneticin, 10 μg/ml puromycin and 10 μM indomethacin.
Cells are detached from the culture flasks by incubation in calcium and magnesium free phosphate buffered saline containing 1 mM disodium ethylenediaminetetraacetic acid (Na2EDTA) and 10 μM indomethacin for 5 min. The cells are isolated by centrifugation at 250×g for 5mins and suspended in an ice cold buffer such as 50 mM Tris, 1 mM Na2EDTA, 140 mM NaCl, 10 μM indomethacin (pH 7.4). The cells are homogenised using a Polytron tissue disrupter (2×10 s burst at full setting), centrifuged at 48,000×g for 20mins and the pellet containing the membrane fraction is washed (optional) three times by suspension and centrifugation at 48,000×g for 20mins. The final membrane pellet is suspended in an assay buffer such as 10 mM 2-[N-morpholino]ethanesulphonic acid, 1 mM Na2EDTA, 10 mM MgCl2 (pH 6). Aliquots are frozen at −80° C. until required.
For the binding assay the cell membranes, competing compounds and [^3H]-PGE2 (3 nM final assay concentration) are incubated in a final volume of 100 μl for 30 min at 30° C. All reagents are prepared in assay buffer. Reactions are terminated by rapid vacuum filtration over GF/B filters using a Brandell cell harvester. The filters are washed with ice cold assay buffer, dried and the radioactivity retained on the filters is measured by liquid scintillation counting in Packard TopCount scintillation counter.
The data are analysed using non linear curve fitting techniques to determine the concentration of compound producing 50% inhibition of specific binding (IC50).

EP1 receptor [2] = biological target: T4, EP1 receptor (Rattus norvegicus, UniProt P70597); parameters: host or cells: rat, in vivo; conditions: chronic constriction injury; cited from earlier work
T4 sequence (P70597 1-405): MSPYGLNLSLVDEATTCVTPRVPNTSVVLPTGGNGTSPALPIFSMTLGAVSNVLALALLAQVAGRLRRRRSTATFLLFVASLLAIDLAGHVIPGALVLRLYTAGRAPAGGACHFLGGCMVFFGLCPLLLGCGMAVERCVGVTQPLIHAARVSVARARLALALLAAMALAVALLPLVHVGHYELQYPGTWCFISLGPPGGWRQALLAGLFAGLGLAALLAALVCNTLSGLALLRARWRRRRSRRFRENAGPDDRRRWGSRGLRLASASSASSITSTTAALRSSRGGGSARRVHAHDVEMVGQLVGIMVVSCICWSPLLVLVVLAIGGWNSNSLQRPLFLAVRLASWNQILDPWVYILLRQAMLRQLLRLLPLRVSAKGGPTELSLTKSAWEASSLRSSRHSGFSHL

EP1 receptor [3] = biological target: T4, EP1 receptor; parameters: host or cells: rodent, in vivo; conditions: rodent, post-operative pain; cited from earlier work

SMILES	IC50 (human EP1 receptor; human EP1 calcium mobilisation assay, read-out: pIC50 values (converted)) [nM]	Ki (human EP3 receptor) [nM]	Ki (human EP1 receptor) [nM]	IC50 [1] [nM]	hyperalgesia and allodynia (EP1 receptor [2])	mechanical hyperalgesia (EP1 receptor [3])
CC(C)(C)NC(=O)c1cccc(Cc2cc(Cl)ccc2OCc2ccccc2)n1 [Example 8, 6-({5-Chloro-2-[(phenylmethyl)oxy]phenyl}methyl)-N-(1,1-dimethylethyl)-2-pyridinecarboxamide]	> 10000	≤ 3160	–	–	–	–
O=C(Nc1cccc(Cc2cc(Cl)ccc2OCc2ccccc2)n1)C1CCOCC1 [Example 14, N-[6-({5-Chloro-2-[(phenylmethyl)oxy]phenyl}methyl)-2-pyridinyl]tetrahydro-2H-pyran-4-carboxamide]	–	≤ 3160	≤ 316	–	–	–
CC(C)COc1ccc(Cl)cc1Cc1cccc(-c2nc3ncccc3[nH]2)n1 [Example 21, 2-[6-({5-Chloro-2-[(2-methylpropyl)oxy]phenyl}methyl)-2-pyridinyl]-1H-imidazo[4,5-b]pyridine hydrochloride]	–	≤ 3160	≤ 316	≤ 100	–	–
CC(C)COc1ccc(Cl)cc1Cc1cccc(-c2nc3c(ccc4nn[nH]c43)[nH]2)n1 [Example 25, 7-[6-({5-Chloro-2-[(2-methylpropyl)oxy]phenyl}methyl)-2-pyridinyl]-1,6-dihydroimidazo[4,5-e][1,2,3]benzotriazolehydrochloride]	–	≤ 1000	≤ 316	–	–	–
Clc1ccc(OCc2ccccc2)c(Cc2cccc(-c3nc4cncnc4[nH]3)n2)c1 [Example 33, 8-[6-({5-Chloro-2-[(phenylmethyl)oxy]phenyl}methyl)-2-pyridinyl]-1H-purinehydrochloride]	–	≤ 1000	≤ 316	≤ 100	–	–
Clc1ccc(OCc2ccccc2)c(Cc2cccc(-c3ncc[nH]3)n2)c1 [Example 43, 2-({5-Chloro-2-[(phenylmethyl)oxy]phenyl}methyl)-6-(1H-imidazol-2-yl)pyridine Hydrochloride]	–	≤ 1000	≤ 316	≤ 100	–	–
CC(C)COc1ccc(Cl)cc1Cc1cccc(-c2nc3ccc(CN(C)C)cc3[nH]2)n1 [Example 51, ({2-[6-({5-Chloro-2-[(2-methylpropyl)oxy]phenyl}methyl)-2-pyridinyl]-1H-benzimidazol-5-yl}methyl)dimethylaminehydrochloride]	–	≤ 3160	≤ 316	≤ 100	–	–
Cc1cc(Cl)ccc1S(=O)(=O)NC[C@H]1C2CCC(CC2)[C@@H]1/C=C\CCCC(=O)O [ONO-8711]	–	–	–	–	reduces hyperalgesia and allodynia	inhibits mechanical hyperalgesia

Continued, in another order:

IC50 (human EP1 receptor; human EP1 calcium mobilisation assay, read-out: pIC50 values (converted)) [nM]	Ki (human EP3 receptor) [nM]	Ki (human EP1 receptor) [nM]	IC50 [1] [nM]	SMILES	hyperalgesia and allodynia (EP1 receptor [2])	mechanical hyperalgesia (EP1 receptor [3])
–	≤ 1000	≤ 316	–	CC(C)NC(=O)c1cccc(Cc2cc(Cl)ccc2OCc2ccccc2)n1 [Example 9, 6-({5-Chloro-2-[(phenylmethyl)oxy]phenyl}methyl)-N-(1-methylethyl)-2-pyridinecarboxamide]	–	–
–	≤ 1000	≤ 316	–	CC(C)COc1ccc(Cl)cc1Cc1cccc(-c2nc3cc4cnn(C)c4cc3[nH]2)n1 [Example 23, 6-[6-({5-Chloro-2-[(2-methylpropyl)oxy]phenyl}methyl)-2-pyridinyl]-1-methyl-1,5-dihydroimidazo[4,5-f]indazolehydrochloride]	–	–
–	≤ 3160	≤ 316	≤ 100	Clc1ccc(OCc2ccccc2)c(Cc2cccc(-c3nc4cc5cn[nH]c5cc4[nH]3)n2)c1 [Example 39, 6-[6-({5-Chloro-2-[(phenylmethyl)oxy]phenyl}methyl)-2-pyridinyl]-1,5-dihydroimidazo[4,5-f]indazolehydrochloride]	–	–
–	≤ 3160	≤ 10000	–	CC(C)COc1ccc(Cl)cc1Cc1cccc(-c2nc3ccc(CN4CCCC4)cc3[nH]2)n1 [Example 49, 2-[6-({5-Chloro-2-[(2-methylpropyl)oxy]phenyl}methyl)-2-pyridinyl]-5-(1-pyrrolidinylmethyl)-1H-benzimidazole hydrochloride]	–	–
